These results are taken from ChEMBL document CHEMBL4043168, “The design and SAR of a novel series of 2-aminopyridine based LRRK2 inhibitors” (Bioorg Med Chem Lett, 2017).

pIC50: −log10 of the molar value.

Experiment [1] concerns the target Leucine-rich repeat serine/threonine-protein kinase 2 (Homo sapiens, UniProt Q5S007). Nature of the experiment: Inhibition wild type LRRK2 (unknown origin) Ser935 phosphorylation in HEK293 cells. It counts as cell-based.
The target in experiment [2] is Calcium/calmodulin-dependent protein kinase type II subunit gamma (Homo sapiens) (UniProt Q13555). In words: Inhibition of CaMK2g labeling at conserved Lys2 (DLKPENLLLASK) in human PBMC at 1 uM.
In experiment [3] the target is Tyrosine-protein kinase HCK (Homo sapiens) (UniProt P08631). In words: Inhibition of HCK activation Loop (EGAKFPIKWTAPEAINFGSFTIK) in human PBMC at 1 uM.
Experiment [4] has as its target Serine/threonine-protein kinase Nek7 (Homo sapiens) (UniProt Q8TDX7). In words: Inhibition of NEK7 conserved Lys2 (DIKPANVFITATGVVK) in human PBMC at 1 uM.
Experiment [5] has as its target Phosphatidylinositol 4-kinase beta (Homo sapiens) (UniProt Q9UBF8). In words: Inhibition of PI4KB ATP binding site (VPHTQAVVLNSKDK) in human PBMC at 1 uM.
The target of experiment [6] is Phosphatidylinositol 3-kinase catalytic subunit type 3 (Homo sapiens) (UniProt Q8NEB9). In words: Inhibition of PIK3C3 ATP binding site (TEDGGKYPVIFKHGDDLR) in human PBMC at 1 uM.
Experiment [7] concerns the target Serine/threonine-protein kinase SIK3 (Homo sapiens) (UniProt Q9Y2K2). Nature of the experiment: Inhibition of QSK conserved Lys1 (VAIKIIDKTQLDEENLKK) in human PBMC at 1 uM.
For experiment [8], the target named is T1, Serine/threonine-protein kinase ULK3 (Homo sapiens) (UniProt Q6PHR2).
T1 sequence (whole entry): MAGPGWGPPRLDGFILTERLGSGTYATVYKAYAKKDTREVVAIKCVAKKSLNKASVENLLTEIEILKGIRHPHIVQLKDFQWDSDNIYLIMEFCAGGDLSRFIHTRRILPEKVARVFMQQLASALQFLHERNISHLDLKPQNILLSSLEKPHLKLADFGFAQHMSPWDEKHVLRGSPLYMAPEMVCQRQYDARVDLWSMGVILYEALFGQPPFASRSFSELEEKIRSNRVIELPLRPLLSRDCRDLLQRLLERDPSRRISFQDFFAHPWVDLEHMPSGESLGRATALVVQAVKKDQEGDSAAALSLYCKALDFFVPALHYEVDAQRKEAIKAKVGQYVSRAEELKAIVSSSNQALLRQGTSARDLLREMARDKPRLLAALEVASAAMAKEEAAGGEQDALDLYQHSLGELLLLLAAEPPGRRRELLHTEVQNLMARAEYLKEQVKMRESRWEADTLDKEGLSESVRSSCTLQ
Nature of the experiment: Inhibition of ULK3 conserved Lys1 (EVVAIKCVAK) in human PBMC at 1 uM. The note with it: pooled result: one value given for 4 cell lines, strains, targets or settings.

In experiment [9] the target is RAC-beta serine/threonine-protein kinase (Homo sapiens) (UniProt P31751). Nature of the experiment: Inhibition of AKT2 labeling at ATP binding site (GTFGKVILVR) in human PBMC at 0.1 uM.
Experiment [10] addresses 5'-AMP-activated protein kinase catalytic subunit alpha-2 (Homo sapiens) (UniProt P54646). Nature of the experiment: Inhibition of AMPKa2 labeling at conserved Lys1 (VAVKILNR) in human PBMC at 0.1 uM.
In experiment [11] the target is Tyrosine-protein kinase Yes (Homo sapiens) (UniProt P07947). Nature of the experiment: Inhibition of YES activation Loop (QGAKFPIKWTAPEAALYGR) in human PBMC at 0.1 uM.
Experiment [12] concerns the target Serine/threonine-protein kinase TBK1 (Homo sapiens) (UniProt Q9UHD2). Nature of the experiment: Inhibition of TBK1 conserved Lys2 (DIKPGNIMR) in human PBMC at 0.1 uM.
The target of experiment [13] is T2, Interleukin-1 receptor-associated kinase 4 (Homo sapiens) (UniProt Q9NWZ3).
T2 sequence (whole entry): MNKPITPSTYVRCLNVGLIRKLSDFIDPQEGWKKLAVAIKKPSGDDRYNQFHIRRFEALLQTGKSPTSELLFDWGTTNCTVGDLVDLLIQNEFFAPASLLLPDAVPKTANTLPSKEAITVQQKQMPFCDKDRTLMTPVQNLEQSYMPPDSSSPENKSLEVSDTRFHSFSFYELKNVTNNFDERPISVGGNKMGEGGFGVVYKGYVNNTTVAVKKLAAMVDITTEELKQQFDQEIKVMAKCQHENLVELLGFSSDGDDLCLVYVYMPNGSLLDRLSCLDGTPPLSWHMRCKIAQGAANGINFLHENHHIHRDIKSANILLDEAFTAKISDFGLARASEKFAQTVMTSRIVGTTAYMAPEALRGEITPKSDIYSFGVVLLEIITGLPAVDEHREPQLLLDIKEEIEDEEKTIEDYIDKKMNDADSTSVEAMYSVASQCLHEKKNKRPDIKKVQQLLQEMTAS
In words: Inhibition of IRAK4 conserved Lys2 (DIKSANILLDEAFTAK) in human PBMC at 0.1 uM.

Experiment [14] has as its target T3, Serine/threonine-protein kinase 4 (Homo sapiens) (UniProt Q13043).
T3 sequence (whole entry): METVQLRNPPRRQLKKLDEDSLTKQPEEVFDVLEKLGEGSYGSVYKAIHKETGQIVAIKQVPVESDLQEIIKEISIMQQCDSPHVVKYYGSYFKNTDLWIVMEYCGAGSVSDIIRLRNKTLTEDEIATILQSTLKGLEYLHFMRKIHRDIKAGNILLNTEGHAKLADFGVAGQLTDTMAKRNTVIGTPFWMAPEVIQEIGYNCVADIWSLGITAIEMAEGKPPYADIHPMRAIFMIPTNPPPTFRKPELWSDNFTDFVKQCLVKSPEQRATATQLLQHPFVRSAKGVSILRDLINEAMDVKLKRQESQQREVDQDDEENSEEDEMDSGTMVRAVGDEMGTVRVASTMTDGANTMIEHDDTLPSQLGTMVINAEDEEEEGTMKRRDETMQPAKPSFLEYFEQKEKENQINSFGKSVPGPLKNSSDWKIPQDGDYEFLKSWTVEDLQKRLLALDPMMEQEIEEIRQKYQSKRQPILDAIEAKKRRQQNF
Nature of the experiment: Inhibition of MST1 conserved Lys2 (DIKAGNILLNTEGHAK) in human PBMC at 0.1 uM.

For experiment [15], the target named is Ribosomal protein S6 kinase alpha-1 (Homo sapiens) (UniProt Q15418). In words: Inhibition of RSK1 domain1 activation Loop (LTDFGLSKEAIDHEKK) in human PBMC at 0.1 uM.
The target in experiment [16] is STE20-like serine/threonine-protein kinase (Homo sapiens) (UniProt Q9H2G2). Nature of the experiment: Inhibition of SLK conserved Lys2 (DLKAGNILFTLDGDIK) in human PBMC at 0.1 uM.
The target of experiment [17] is Myosin light chain kinase, smooth muscle (Homo sapiens) (UniProt Q15746). In words: Inhibition of smMLCK conserved Lys1 (VWAGKFFK) in human PBMC at 0.1 uM.
Experiment [18] addresses Serine/threonine-protein kinase WNK2 (Homo sapiens) (UniProt Q9Y3S1). Nature of the experiment: Inhibition of Wnk2 ATP binding site (GSFKTVYK) in human PBMC at 0.1 uM.

Sequence of Leucine-rich repeat serine/threonine-protein kinase 2 (Q5S007 whole entry): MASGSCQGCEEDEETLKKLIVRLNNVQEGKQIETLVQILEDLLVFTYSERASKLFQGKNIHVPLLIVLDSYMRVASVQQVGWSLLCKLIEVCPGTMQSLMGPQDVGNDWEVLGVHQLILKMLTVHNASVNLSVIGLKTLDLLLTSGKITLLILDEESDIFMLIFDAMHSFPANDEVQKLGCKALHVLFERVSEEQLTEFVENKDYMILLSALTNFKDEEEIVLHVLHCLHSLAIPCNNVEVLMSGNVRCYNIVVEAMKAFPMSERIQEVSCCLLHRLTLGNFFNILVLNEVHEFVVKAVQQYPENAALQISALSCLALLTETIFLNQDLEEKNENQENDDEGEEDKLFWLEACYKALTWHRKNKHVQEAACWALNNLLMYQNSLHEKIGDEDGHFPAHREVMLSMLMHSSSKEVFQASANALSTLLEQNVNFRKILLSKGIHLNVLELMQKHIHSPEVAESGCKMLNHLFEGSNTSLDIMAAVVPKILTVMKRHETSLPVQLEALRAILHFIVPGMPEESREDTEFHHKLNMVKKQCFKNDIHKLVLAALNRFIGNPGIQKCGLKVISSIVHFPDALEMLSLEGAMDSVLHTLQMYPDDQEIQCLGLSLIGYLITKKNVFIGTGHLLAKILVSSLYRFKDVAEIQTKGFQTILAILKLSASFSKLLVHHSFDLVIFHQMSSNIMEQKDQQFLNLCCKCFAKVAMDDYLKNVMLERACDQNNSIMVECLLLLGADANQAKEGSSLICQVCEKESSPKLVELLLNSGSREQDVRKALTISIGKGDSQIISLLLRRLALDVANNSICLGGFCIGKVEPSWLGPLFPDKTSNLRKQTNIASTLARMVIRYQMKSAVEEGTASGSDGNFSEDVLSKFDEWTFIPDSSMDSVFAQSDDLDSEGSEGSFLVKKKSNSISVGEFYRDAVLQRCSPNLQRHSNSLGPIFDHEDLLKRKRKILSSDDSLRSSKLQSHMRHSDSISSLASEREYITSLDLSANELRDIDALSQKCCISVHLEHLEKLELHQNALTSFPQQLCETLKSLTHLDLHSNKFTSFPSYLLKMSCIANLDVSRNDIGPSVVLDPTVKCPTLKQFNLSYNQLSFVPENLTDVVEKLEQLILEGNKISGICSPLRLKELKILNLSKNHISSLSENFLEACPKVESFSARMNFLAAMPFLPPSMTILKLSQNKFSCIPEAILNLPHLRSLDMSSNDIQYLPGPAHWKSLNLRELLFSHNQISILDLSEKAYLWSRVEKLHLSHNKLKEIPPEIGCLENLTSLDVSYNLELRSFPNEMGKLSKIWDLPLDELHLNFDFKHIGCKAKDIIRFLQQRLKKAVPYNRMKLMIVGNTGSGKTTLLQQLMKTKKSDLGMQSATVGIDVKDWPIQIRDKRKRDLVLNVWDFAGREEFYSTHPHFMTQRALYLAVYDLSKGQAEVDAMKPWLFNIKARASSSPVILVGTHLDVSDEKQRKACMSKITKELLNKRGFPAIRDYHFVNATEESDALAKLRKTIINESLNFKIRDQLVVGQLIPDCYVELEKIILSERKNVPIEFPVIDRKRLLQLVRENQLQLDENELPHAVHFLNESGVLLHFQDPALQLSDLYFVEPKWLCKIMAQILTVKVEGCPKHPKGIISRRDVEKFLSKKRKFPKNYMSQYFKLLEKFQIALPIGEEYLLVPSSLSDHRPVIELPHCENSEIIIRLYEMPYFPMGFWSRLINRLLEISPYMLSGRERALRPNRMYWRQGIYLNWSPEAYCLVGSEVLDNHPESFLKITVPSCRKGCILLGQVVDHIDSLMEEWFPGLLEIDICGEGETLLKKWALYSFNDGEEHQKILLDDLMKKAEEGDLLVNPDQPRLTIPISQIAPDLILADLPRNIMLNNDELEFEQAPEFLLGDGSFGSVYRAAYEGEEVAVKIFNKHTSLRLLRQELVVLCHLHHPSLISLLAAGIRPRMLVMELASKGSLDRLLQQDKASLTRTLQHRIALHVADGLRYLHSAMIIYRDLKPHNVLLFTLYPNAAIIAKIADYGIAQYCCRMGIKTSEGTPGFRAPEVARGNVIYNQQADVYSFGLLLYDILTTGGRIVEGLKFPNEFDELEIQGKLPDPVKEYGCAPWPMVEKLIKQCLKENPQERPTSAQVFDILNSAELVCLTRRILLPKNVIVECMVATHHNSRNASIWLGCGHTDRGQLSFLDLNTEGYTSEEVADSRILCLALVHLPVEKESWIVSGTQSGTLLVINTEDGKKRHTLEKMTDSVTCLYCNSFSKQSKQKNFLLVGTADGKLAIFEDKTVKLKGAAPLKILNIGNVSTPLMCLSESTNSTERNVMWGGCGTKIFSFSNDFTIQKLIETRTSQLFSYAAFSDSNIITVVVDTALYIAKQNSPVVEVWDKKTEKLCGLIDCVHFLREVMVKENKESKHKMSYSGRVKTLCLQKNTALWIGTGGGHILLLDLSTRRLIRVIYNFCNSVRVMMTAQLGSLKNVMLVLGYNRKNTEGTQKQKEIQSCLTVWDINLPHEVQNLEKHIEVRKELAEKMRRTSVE
Sequence of Serine/threonine-protein kinase WNK2 (Homo sapiens) (Q9Y3S1 whole entry): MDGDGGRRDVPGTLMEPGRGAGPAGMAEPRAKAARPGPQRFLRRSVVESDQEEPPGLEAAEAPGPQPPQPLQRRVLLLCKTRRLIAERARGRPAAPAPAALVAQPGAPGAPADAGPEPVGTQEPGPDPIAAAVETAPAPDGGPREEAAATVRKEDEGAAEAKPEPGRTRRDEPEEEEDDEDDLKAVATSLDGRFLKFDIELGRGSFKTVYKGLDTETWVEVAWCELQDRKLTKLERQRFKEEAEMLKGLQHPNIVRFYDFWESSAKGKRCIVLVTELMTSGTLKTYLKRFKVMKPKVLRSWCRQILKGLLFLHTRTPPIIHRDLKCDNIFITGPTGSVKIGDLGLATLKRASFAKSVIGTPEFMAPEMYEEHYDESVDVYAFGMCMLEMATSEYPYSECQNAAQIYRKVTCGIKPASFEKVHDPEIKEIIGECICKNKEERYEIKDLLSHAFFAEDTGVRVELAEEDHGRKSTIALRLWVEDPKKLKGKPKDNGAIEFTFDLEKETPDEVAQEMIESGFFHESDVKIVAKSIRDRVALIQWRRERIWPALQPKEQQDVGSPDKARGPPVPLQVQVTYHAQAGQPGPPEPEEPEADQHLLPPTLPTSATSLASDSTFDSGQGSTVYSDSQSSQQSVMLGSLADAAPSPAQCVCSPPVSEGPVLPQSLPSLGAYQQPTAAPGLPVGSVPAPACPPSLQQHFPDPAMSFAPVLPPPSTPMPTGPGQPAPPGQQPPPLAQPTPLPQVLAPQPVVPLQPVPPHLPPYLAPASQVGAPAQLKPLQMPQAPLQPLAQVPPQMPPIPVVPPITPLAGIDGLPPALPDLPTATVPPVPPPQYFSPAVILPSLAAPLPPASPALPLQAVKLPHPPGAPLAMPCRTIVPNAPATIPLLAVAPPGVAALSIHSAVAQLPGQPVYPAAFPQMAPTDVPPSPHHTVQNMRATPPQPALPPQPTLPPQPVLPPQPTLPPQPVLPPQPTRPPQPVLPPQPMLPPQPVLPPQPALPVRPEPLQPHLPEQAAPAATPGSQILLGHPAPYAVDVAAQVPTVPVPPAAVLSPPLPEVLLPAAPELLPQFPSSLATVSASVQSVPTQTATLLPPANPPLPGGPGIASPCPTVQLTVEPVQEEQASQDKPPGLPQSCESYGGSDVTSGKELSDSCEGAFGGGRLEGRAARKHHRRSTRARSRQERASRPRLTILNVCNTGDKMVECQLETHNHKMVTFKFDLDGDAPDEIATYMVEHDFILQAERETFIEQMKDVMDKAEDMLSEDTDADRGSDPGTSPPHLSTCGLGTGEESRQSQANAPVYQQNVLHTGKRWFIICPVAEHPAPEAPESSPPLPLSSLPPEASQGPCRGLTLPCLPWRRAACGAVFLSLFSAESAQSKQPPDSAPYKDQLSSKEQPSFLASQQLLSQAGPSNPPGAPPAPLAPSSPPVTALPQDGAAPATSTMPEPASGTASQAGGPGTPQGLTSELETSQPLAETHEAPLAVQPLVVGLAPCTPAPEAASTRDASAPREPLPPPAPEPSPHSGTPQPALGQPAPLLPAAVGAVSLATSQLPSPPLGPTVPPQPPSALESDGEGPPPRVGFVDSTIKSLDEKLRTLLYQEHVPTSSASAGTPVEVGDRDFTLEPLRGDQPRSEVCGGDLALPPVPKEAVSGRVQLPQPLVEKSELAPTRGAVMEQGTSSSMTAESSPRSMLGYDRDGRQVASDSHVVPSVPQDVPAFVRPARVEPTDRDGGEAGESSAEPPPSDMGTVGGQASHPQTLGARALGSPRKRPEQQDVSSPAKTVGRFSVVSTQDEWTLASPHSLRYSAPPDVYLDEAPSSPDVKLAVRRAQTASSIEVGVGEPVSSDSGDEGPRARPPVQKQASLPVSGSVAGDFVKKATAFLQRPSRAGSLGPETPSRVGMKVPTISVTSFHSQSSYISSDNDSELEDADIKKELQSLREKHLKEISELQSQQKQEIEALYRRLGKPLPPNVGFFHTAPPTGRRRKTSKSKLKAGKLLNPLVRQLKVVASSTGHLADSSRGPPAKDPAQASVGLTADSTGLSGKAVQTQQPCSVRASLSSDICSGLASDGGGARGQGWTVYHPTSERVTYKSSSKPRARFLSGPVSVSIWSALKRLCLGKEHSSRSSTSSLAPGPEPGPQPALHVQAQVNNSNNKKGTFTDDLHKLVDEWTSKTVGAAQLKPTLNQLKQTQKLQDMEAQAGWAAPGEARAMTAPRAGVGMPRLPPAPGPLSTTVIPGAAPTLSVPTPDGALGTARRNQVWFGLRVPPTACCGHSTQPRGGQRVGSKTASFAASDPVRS
Sequence of Serine/threonine-protein kinase Nek7 (Homo sapiens) (Q8TDX7 whole entry, looked up): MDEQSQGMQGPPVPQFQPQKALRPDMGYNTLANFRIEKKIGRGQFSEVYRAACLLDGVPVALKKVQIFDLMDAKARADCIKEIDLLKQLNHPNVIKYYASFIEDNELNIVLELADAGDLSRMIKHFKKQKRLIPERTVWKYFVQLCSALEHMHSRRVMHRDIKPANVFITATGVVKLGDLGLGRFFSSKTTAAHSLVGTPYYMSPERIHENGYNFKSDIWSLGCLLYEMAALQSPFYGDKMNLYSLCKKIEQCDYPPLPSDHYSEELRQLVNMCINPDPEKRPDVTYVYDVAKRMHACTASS

As for `CC(C)n1cc(-c2cc(-c3ccc(CN4CCOCC4)cc3)cnc2N)nn1`, the pIC50 (in general, the negative decadic logarithm of the IC50, by convention in mol/L) in experiment [1] was 5.68. The inhibition (usually the change of the read-out against control, counted positive when it falls) in experiment [2] was -0.4%; in [3], -2.2%; in [4], -9.6%; in [5], 2.2%; in experiment [6] it was 2.8%; in experiment [7], 4%. Also, the inhibition in [8] is 23.5%; in experiment [9], 17.1%; in experiment [10] it was 7.7%; in [11] it was -4.4%; in experiment [12], 21.7%; in [13] it was -1.8%. Further, the inhibition in [14] was found to be 1.3%; in experiment [15], 17.2%; in experiment [16], 24.4%; in [17] it was 29.6%; in experiment [18] it was 18.3%.
